According to patent US10206909B2, “3-(1H-pyrrolo[2,3-B]pyridin-2-yl)-1H-pyrazolo[4,3-B]pyridines and therapeutic uses thereof” (Samumed, LLC, priority 2015, dated 2019):

Experiments:
IL-6 (THP-1 cells) = experiment: IL-6 inhibition in LPS-stimulated THP-1 cells (HTRF); type: cell-based; conditions: Homo sapiens; for EC50: THP-1 cells, LPS 500 ng/mL, 22 hours, IL6 HTRF; for inhibition at 10 µM: given where EC50 >10 μM, THP-1, IL6, read-out: percent inhibition at 10 μM
Protocol: Human Monocyte Cell Culture: Human monocyte cell line (THP-1 cells; Catalog # TIB-202, ATCC, Manassas, Va.) were cultured in Roswell Park Memorial Institute (RPMI) 1640 Medium (Catalog #21870-100, Buffalo, N.Y.) with 1% L-glutamine, 1% HEPES, 1% Sodium Pyruvate, 2% Sodium Bicarbonate supplemented with 100 units/mL penicillin, 50 μg/mL streptomycin, 2-mercaptoethanol (0.05 mM) [basal medium] and 10% fetal bovine serum (Catalog #16140089, Life Technologies, Carlsbad, Calif.) at 37° C. and 5% CO2.
Compound Screening: THP-1 cells were cultured in basal media with 1% FBS for 24 hours before the start of the assay. Each compound was dissolved in DMSO as a 10 mM stock and used to prepare compound source plates. Serial dilution (1:3, 10-point dose-response curves starting from 10 μM) and compound transfer was performed using the ECHO 550 (Labcyte, Sunnyvale, Calif.) into 384-well white low volume assay plates (Greiner Bio-One) with appropriate DMSO backfill for a final DMSO concentration of 0.1%. THP-1 cells were plated at 5000 cells/well in the 384-well plates and incubated at 37° C. for 2 h. 500 ng/mL of LPS was added after 2 hours and cells were incubated for another 22 hours at 37° C. Plates were spun in a centrifuge for 1 minute at […] and a mixture of anti-IL6 XL665, and anti-IL6 Cryptate diluted in reconstitution buffer (Cisbio Inc.) was added to each well. Following incubation for 3 hrs at room temperature, Homogeneous Time-Resolved Fluorescence (HTRF) was measured using the Envision (Perkin Elmer) at 665 nm and […]. The ratio of fluorescence at 665 nm to 620 nm was used as a readout for IL6 quantification. All samples were processed in duplicate. Readings were normalized to DMSO treated cells and normalized activities were utilized for EC50 calculations using the dose-response log (inhibitor) vs. response —variable slope (four parameters) nonlinear regression feature available in GraphPad Prism 5.0 (or Dotmatics). For EC50 of >10 μM, the percent inhibition at 10 μM is provided.

[1] = system: primary human mesenchymal stem cells (hMSCs); experiment: Chondrogenesis induction in mesenchymal stem cells (nodule count); type: cell-based; conditions: 144 h, 6 days; for EC50: concentration required to induce 50% levels of chondrogenesis vs TGF-β3, read-out: Conc (nM) of 50% TGF-β3 activity; for Emax: relative to TGF-β3 (10 ng/mL) positive control, read-out: Max. Activity as % TGF-β3 activity
Protocol: Representative compounds were screened using primary human mesenchymal stem cells (hMSCs) to determine their ability to induce chondrogenesis (process by which cartilage is developed).
Human Mesenchymal Stem Cell Culture: Primary human mesenchymal stem cells (hMSCs) were purchased from Lonza (Walkersville, Md.) and expanded in Mesenchymal Stem Cell Growth Media (Lonza). Cells between passage 3 and 6 were used for the experiments.
Compound Screening: Each compound was dissolved in DMSO as a 10 mM stock and used to prepare compound source plates. Serial dilution (1:3, 6-point dose-response curves from 2700 nM to 10 nM) and compound transfer was performed using the ECHO 550 (Labcyte, Sunnyvale, Calif.) into 96-well clear bottom assay plates (Greiner Bio-One) with appropriate DMSO backfill for a final DMSO concentration of 0.03%. hMSCs were plated at 20,000 cells/well in 250 μL/well Incomplete Chondrogenic Induction Medium (Lonza; DMEM, dexamethasone, ascorbate, insulin-transferrin-selenium [ITS supplement], gentamycin-amphotericin [GA-1000], sodium pyruvate, proline and L-glutamine). TGF-β3 (10 ng/mL) was used as a positive control for differentiation while negative control wells were treated with 75 nL DMSO for normalization and calculating EC50 values. Cells were incubated at 37° C. and 5% CO2 for 6 days. To image chondrogenic nodules, the cells were fixed using 4% formaldehyde (Electron Microscopy Sciences), and stained with 2 μg/mL Rhodamine B (Sigma-Aldrich) and 20 μM Nile Red (Sigma-Aldrich) [Johnson K., et. al, A Stem Cell-Based Approach to Cartilage Repair, Science, (2012). 336(6082), 717-721]. The nodules imaged (4 images per well at 4× magnification) by excitation at 531 nm and emission at 625 nm and quantified using the CellInsight CX5 (Thermo Scientific). Number of nodules in each well was normalized to the average of 3 DMSO treated wells on the same plate using Excel (Microsoft Inc.). The normalized averages (fold change over DMSO) of 3 replicate wells for each compound concentration were calculated. Due to solubility limitations of some of the compounds, curve fitting was incomplete leading to inaccurate EC50 determinations.
Using TGF-β3 as a positive control, the concentration of representative compounds required to induce 50% levels of chondrogenesis is reported. In addition, the maximum activity of each compound and the respective dose that each compound reached maximum chondrogenesis activity is reported.

| SMILES | EC50 (IL-6 (THP-1 cells)) | EC50 [1] | inhibition at 10 µM (IL-6 (THP-1 cells)) | Emax [1] |
| --- | --- | --- | --- | --- |
| c1cncc(-c2ccc3[nH]nc(-c4cc5c(-c6cccnc6)ccnc5[nH]4)c3n2)c1 [Compound 88, 5-(Pyridin-3-yl)-3-(4-(pyridin-3-yl)-1H-pyrrolo[2,3-b]pyridin-2-yl)-1H-pyrazolo[4,3-b]pyridine] | > 10 µM | 100 nM | 38.7% | 59% |
| FC1(F)CCN(Cc2cncc(-c3ccc4[nH]nc(-c5cc6c(N7CCCCC7)ccnc6[nH]5)c4n3)c2)C1 [Compound 194, 5-(5-((3,3-Difluoropyrrolidin-1-yl)methyl)pyridin-3-yl)-3-(4-(piperidin-1-yl)-1H-pyrrolo[2,3-b]pyridin-2-yl)-1H-pyrazolo[4,3-b]pyridine] | 6.95 µM |  |  | 38% |
| c1cc(-c2ccnc3[nH]c(-c4n[nH]c5ccc(-c6cncc(CNCC7CCCC7)c6)nc45)cc23)ccn1 [Compound 137, 1-Cyclopentyl-N-((5-(3-(4-(pyridin-4-yl)-1H-pyrrolo[2,3-b]pyridin-2-yl)-1H-pyrazolo[4,3-b]pyridin-5-yl)pyridin-3-yl)methyl)methanamine] | > 10 µM | 100 nM | 40.8% | 67% |
| CN(C)c1cncc(-c2ccc3[nH]nc(-c4cc5c(-c6cccnc6)ccnc5[nH]4)c3n2)c1 [Compound 91, N,N-Dimethyl-5-(3-(4-(pyridin-3-yl)-1H-pyrrolo[2,3-b]pyridin-2-yl)-1H-pyrazolo[4,3-b]pyridin-5-yl)pyridin-3-amine] | > 10 µM | 30 nM | 36.3% | 71% |
| CN1CCN(c2ccnc3[nH]c(-c4n[nH]c5ccc(-c6cncc(NC(=O)C(C)(C)C)c6)nc45)cc23)CC1 [Compound 232, N-(5-(3-(4-(4-Methylpiperazin-1-yl)-1H-pyrrolo[2,3-b]pyridin-2-yl)-1H-pyrazolo[4,3-b]pyridin-5-yl)pyridin-3-yl)pivalamide] | 3.43 µM |  |  | 24% |
| Fc1cccc(-c2ccnc3[nH]c(-c4n[nH]c5ccc(-c6cncc(CN7CCCCC7)c6)nc45)cc23)c1 [Compound 15, 3-(4-(3-Fluorophenyl)-1H-pyrrolo[2,3-b]pyridin-2-yl)-5-(5-(piperidin-1-ylmethyl)pyridin-3-yl)-1H-pyrazolo[4,3-b]pyridine] | > 10 µM | 900 nM | 41% | 62% |
| Cc1ccncc1-c1ccc2[nH]nc(-c3cc4c(-c5ccncc5)ccnc4[nH]3)c2n1 [Compound 117, 5-(4-Methylpyridin-3-yl)-3-(4-(pyridin-4-yl)-1H-pyrrolo[2,3-b]pyridin-2-yl)-1H-pyrazolo[4,3-b]pyridine] | > 10 µM | 300 nM | 45.3% | 56% |
| CN(C)Cc1cncc(-c2ccc3[nH]nc(-c4cc5c(-c6ccccc6F)ccnc5[nH]4)c3n2)c1 [Compound 69, 1-(5-(3-(4-(2-Fluorophenyl)-1H-pyrrolo[2,3-b]pyridin-2-yl)-1H-pyrazolo [4,3-b]pyridin-5-yl)pyridin-3-yl)-N,N-dimethylmethanamine] | 1.08 µM |  |  | 44% |
| CCCCC(=O)Nc1cncc(-c2ccc3[nH]nc(-c4cc5c(N6CCCCC6)ccnc5[nH]4)c3n2)c1 [Compound 187, N-(5-(3-(4-(Piperidin-1-yl)-1H-pyrrolo[2,3-b]pyridin-2-yl)-1H-pyrazolo[4,3-b]pyridin-5-yl)pyridin-3-yl)pentanamide] | 0.34 µM | 10 nM |  | 92% |
| CC(C)Nc1cncc(-c2ccc3[nH]nc(-c4cc5c(-c6cccnc6)ccnc5[nH]4)c3n2)c1 [Compound 96, N-Isopropyl-5-(3-(4-(pyridin-3-yl)-1H-pyrrolo[2,3-b]pyridin-2-yl)-1H-pyrazolo[4,3-b]pyridin-5-yl)pyridin-3-amine] | 0.008 µM |  |  | 47% |
| FC1(F)CCN(Cc2cncc(-c3ccc4[nH]nc(-c5cc6c(-c7cccnc7)ccnc6[nH]5)c4n3)c2)C1 [Compound 110, 5-(5-((3,3-Difluoropyrrolidin-1-yl)methyl)pyridin-3-yl)-3-(4-(pyridin-3-yl)-1H-pyrrolo[2,3-b]pyridin-2-yl)-1H-pyrazolo[4,3-b]pyridine] | 4.93 µM | 300 nM |  | 80% |

Continued, in another order:

| EC50 (IL-6 (THP-1 cells)) | EC50 [1] | SMILES | inhibition at 10 µM (IL-6 (THP-1 cells)) | Emax [1] |
| --- | --- | --- | --- | --- |
| > 10 µM | 300 nM | CN1CCN(c2ccnc3[nH]c(-c4n[nH]c5ccc(-c6cn[nH]c6)nc45)cc23)CC1 [Compound 635, 3-(4-(4-Methylpiperazin-1-yl)-1H-pyrrolo[2,3-b]pyridin-2-yl)-5-(1H-pyrazol-4-yl)-1H-pyrazolo[4,3-b]pyridine] | 8.4% | 60% |
| > 10 µM | 10 nM | CN1CCN(c2ccnc3[nH]c(-c4n[nH]c5ccc(-c6cncc(NC(=O)c7ccccc7)c6)nc45)cc23)CC1 [Compound 235, N-(5-(3-(4-(4-Methylpiperazin-1-yl)-1H-pyrrolo[2,3-b]pyridin-2-yl)-1H-pyrazolo[4,3-b]pyridin-5-yl)pyridin-3-yl)benzamide] | 48.1% | 62% |
| 0.002 µM | 10 nM | c1cncc(-c2ccc3[nH]nc(-c4cc5cccnc5[nH]4)c3n2)c1 [Compound 256, 5-(Pyridin-3-yl)-3-(1H-pyrrolo[2,3-b]pyridin-2-yl)-1H-pyrazolo[4,3-b]pyridine] |  | 66% |
| 6.75 µM | 900 nM | CN(C)CCNc1cc(F)cc(-c2ccnc3[nH]c(-c4n[nH]c5ccc(-c6cncc(CNCC7CCCC7)c6)nc45)cc23)c1 [Compound 473, N^1-(3-(2-(5-(5-(((Cyclopentylmethyl)amino)methyl)pyridin-3-yl)-1H-pyrazolo[4,3-b]pyridin-3-yl)-1H-pyrrolo[2,3-b]pyridin-4-yl)-5-fluorophenyl)-N^2,N^2-dimethylethane-1,2-diamine] |  | 111% |
| 0.106 µM | 300 nM | c1csc(-c2ccnc3[nH]c(-c4n[nH]c5ccc(-c6cncc(OC7CCNCC7)c6)nc45)cc23)c1 [Compound 704, 5-(5-(Piperidin-4-yloxy)pyridin-3-yl)-3-(4-(thiophen-2-yl)-1H-pyrrolo[2,3-b]pyridin-2-yl)-1H-pyrazolo[4,3-b]pyridine] |  | 51% |
| > 10 µM |  | CN(C)CCNc1cc(F)cc(-c2ccnc3[nH]c(-c4n[nH]c5ccc(-c6ccncc6)nc45)cc23)c1 [Compound 466, N^1-(3-Fluoro-5-(2-(5-(pyridin-4-yl)-1H-pyrazolo[4,3-b]pyridin-3-yl)-1H-pyrrolo[2,3-b]pyridin-4-yl)phenyl)-N^2,N^2-dimethylethane-1,2-diamine] | 31% | 17% |
| 0.003 µM |  | c1cnc2[nH]c(-c3n[nH]c4ccc(-c5cncnc5)nc34)cc2c1 [Compound 279, 5-(Pyrimidin-5-yl)-3-(1H-pyrrolo[2,3-b]pyridin-2-yl)-1H-pyrazolo[4,3-b]pyridine] |  | 43% |
